Where two headings read alike, the source gives them in different places.
Key:
[1] = target: safety screen panel of human pharmacological targets (Homo sapiens, UniProt Q12809)
[2] = tested on: safety screen panel of human pharmacological targets
[3] = 1,000 mg/kg mixed glycosides by oral gavage; 6 hours; HPLC
[4] = target: T1, safety screen panel of human pharmacological targets (Homo sapiens, UniProt P04150); assay: biochemical; details: read-out: percent inhibition: GR (h) (agonist radioligand)
T1 sequence (P04150 1-777): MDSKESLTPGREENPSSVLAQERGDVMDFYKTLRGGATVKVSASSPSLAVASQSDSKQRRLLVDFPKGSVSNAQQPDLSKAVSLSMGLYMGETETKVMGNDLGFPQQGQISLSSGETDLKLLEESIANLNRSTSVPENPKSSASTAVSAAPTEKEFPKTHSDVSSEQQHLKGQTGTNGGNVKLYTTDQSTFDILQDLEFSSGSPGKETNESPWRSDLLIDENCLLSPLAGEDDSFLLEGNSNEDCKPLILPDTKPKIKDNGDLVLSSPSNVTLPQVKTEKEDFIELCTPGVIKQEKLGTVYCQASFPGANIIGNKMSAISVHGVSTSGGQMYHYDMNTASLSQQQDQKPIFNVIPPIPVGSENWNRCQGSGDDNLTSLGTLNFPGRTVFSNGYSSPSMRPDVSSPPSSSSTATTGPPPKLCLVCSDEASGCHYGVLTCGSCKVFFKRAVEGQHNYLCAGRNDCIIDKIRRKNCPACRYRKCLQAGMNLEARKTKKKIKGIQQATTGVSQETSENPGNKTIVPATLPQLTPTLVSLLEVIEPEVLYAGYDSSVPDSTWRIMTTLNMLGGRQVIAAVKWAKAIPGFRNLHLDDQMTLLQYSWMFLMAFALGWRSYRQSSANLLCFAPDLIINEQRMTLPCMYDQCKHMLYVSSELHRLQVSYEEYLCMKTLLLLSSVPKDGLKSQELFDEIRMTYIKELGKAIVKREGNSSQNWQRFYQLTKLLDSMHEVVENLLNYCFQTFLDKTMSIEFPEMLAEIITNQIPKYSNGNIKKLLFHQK

[5] = target: safety screen panel of human pharmacological targets (Homo sapiens, UniProt P06239); assay: biochemical; details: read-out: percent inhibition: Lck kinase (h)
[6] = target: T2, safety screen panel of human pharmacological targets (Homo sapiens, UniProt P11229); assay: biochemical; details: read-out: percent inhibition: M1 (h) (antagonist radioligand)
T2 sequence (P11229 1-460): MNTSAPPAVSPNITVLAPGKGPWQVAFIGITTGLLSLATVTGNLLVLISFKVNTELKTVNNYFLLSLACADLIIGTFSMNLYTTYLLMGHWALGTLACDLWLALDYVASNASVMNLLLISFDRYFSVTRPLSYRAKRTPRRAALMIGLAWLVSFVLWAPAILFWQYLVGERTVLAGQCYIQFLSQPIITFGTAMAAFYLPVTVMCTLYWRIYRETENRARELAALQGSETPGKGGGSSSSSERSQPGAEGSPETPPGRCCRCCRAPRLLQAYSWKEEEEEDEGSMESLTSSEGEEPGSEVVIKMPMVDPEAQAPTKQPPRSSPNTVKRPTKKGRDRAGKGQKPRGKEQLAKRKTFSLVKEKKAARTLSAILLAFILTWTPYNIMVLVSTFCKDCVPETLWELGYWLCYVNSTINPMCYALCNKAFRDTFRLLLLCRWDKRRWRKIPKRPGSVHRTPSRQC

[7] = target: safety screen panel of human pharmacological targets (Homo sapiens, UniProt P22303); assay: biochemical; details: read-out: percent inhibition: acetylcholinesterase (h)
[8] = target: safety screen panel of human pharmacological targets (Homo sapiens, UniProt P23975); assay: biochemical; details: read-out: percent inhibition: norepinephrine transporter (h) (antagonist radioligand)
[9] = target: T3, safety screen panel of human pharmacological targets (Homo sapiens, UniProt P35354); assay: biochemical; details: read-out: percent inhibition: COX2(h})
T3 sequence (P35354 18-604): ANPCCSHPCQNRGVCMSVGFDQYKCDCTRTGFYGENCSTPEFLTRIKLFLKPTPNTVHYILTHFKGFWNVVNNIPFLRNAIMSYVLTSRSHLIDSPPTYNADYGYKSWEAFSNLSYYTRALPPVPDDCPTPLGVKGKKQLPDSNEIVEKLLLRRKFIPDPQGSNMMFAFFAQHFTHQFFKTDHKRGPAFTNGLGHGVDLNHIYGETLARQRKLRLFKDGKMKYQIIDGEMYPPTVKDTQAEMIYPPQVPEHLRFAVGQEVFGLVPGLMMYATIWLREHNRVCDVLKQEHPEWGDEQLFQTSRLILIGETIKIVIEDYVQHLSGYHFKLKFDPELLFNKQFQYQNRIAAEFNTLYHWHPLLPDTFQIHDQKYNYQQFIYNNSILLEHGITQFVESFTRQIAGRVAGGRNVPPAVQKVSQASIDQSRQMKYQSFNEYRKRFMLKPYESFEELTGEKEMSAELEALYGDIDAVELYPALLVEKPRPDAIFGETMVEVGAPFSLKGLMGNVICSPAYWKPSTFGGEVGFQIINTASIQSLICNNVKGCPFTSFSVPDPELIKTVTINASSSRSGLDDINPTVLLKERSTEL

[10] = target: safety screen panel of human pharmacological targets (Homo sapiens, UniProt P35367); assay: biochemical; details: read-out: percent inhibition: H1 (h) (antagonist radioligand)
[11] = target: safety screen panel of human pharmacological targets (Homo sapiens, UniProt P41143); assay: biochemical; details: read-out: percent inhibition: delta (DOP) (h) (agonist radioligand)
[12] = target: safety screen panel of human pharmacological targets (Rattus norvegicus, UniProt P34975); assay: biochemical; details: read-out: percent inhibition: kappa (KOP) (agonist radioligand)
[13] = 10 micromolar test article, Adrenergic a1A receptor
[14] = 10 micromolar test article, Adrenergic α2A receptor
[15] = 10 micromolar test article, Benzodiazapine GABA channel
[16] = 10 micromolar test article, Calcium Channel L-Type, Dihydropyridine
[17] = 10 micromolar test article, Dopamine D2S receptor
[18] = 10 micromolar test article, N-Methyl-D-aspartate
[19] = 10 micromolar test article, Phosphodiesterase 4D2
[20] = 10 micromolar test article, Sodium channel
[21] = 10 micromolar test article, Voltage-gated potassium channel
[22] = 10 micromolar test article, results greater than 50% deemed significant

Sequence of safety screen panel of human pharmacological targets (Homo sapiens, UniProt P35367) (P35367 whole entry): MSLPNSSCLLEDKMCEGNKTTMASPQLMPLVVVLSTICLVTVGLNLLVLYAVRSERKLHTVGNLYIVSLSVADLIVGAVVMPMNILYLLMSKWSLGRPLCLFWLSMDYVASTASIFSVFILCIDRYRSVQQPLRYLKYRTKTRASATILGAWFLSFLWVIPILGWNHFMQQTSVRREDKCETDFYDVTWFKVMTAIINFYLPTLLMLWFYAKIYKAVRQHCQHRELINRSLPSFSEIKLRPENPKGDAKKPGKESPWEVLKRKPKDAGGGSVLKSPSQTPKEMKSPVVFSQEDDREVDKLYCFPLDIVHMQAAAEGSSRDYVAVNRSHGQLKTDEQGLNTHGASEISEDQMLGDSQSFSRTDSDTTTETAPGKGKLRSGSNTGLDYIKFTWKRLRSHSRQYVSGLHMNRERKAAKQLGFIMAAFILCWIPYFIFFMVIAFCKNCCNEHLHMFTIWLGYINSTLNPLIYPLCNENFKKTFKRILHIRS
Sequence of safety screen panel of human pharmacological targets (Homo sapiens, UniProt Q12809) (Q12809 whole entry): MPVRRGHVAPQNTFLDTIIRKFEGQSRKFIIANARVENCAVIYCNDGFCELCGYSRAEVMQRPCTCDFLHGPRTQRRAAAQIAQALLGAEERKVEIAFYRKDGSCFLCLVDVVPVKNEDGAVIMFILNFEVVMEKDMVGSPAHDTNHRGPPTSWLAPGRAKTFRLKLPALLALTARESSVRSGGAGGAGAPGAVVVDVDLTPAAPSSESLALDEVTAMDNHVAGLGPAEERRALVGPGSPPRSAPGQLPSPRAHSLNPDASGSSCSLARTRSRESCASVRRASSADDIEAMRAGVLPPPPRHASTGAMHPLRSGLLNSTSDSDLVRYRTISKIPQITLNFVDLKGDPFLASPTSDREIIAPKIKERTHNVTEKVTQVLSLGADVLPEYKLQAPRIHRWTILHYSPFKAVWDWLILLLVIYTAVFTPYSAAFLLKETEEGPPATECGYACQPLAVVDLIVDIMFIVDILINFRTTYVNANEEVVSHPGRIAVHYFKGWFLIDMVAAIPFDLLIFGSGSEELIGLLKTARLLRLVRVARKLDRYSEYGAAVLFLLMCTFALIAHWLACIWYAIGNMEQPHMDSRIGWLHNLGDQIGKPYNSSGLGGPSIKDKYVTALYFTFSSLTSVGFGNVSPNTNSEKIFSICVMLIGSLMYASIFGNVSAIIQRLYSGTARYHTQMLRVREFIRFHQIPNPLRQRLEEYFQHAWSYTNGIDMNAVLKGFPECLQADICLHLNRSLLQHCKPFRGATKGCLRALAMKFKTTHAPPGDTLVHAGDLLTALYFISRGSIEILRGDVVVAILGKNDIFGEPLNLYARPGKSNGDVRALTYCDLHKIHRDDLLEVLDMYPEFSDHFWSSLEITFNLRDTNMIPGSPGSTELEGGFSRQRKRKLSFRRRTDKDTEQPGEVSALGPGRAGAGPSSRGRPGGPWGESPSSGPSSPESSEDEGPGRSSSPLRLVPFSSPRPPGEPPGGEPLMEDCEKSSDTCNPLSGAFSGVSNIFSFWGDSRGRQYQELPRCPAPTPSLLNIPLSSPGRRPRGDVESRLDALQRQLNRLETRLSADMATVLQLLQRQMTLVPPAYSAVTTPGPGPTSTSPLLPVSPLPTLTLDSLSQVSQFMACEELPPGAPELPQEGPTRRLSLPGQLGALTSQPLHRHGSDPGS
Sequence of safety screen panel of human pharmacological targets (Homo sapiens, UniProt P41143) (P41143 whole entry): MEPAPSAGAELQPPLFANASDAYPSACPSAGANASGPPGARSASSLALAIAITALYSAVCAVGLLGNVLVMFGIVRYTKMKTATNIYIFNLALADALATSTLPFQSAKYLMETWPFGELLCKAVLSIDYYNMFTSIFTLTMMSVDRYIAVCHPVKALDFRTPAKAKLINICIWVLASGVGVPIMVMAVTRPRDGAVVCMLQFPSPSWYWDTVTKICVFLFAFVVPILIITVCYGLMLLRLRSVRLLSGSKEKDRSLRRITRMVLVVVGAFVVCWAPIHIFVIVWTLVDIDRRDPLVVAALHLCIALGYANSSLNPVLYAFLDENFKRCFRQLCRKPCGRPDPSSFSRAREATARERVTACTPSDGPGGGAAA
Sequence of safety screen panel of human pharmacological targets (Rattus norvegicus, UniProt P34975) (P34975 whole entry): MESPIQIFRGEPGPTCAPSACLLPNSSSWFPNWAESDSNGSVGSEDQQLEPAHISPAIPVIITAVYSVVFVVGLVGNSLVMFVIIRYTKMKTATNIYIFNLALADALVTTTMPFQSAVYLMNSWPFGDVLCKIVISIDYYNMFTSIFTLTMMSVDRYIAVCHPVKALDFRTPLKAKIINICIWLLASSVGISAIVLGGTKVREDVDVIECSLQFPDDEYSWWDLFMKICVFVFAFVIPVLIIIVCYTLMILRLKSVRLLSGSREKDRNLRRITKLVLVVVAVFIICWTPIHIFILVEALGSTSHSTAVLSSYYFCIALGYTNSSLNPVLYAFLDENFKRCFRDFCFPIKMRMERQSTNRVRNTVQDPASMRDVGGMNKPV
Sequence of safety screen panel of human pharmacological targets (Homo sapiens, UniProt P23975) (P23975 whole entry): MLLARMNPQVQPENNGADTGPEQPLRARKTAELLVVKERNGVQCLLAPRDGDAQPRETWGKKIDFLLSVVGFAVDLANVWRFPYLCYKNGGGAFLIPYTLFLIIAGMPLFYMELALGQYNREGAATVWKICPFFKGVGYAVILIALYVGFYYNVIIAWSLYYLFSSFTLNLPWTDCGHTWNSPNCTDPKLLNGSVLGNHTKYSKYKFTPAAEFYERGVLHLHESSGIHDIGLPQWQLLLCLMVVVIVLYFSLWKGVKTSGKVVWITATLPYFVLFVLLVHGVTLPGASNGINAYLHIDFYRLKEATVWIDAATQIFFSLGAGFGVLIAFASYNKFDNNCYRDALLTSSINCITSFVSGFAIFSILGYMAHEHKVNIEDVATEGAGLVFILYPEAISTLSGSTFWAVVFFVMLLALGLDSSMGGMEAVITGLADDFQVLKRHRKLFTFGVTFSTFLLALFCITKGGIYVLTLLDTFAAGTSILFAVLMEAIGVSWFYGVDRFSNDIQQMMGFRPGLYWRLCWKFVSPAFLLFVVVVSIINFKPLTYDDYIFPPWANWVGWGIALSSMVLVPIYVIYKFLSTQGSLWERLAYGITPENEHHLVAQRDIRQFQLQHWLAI
Sequence of safety screen panel of human pharmacological targets (Homo sapiens, UniProt P22303) (P22303 32-614): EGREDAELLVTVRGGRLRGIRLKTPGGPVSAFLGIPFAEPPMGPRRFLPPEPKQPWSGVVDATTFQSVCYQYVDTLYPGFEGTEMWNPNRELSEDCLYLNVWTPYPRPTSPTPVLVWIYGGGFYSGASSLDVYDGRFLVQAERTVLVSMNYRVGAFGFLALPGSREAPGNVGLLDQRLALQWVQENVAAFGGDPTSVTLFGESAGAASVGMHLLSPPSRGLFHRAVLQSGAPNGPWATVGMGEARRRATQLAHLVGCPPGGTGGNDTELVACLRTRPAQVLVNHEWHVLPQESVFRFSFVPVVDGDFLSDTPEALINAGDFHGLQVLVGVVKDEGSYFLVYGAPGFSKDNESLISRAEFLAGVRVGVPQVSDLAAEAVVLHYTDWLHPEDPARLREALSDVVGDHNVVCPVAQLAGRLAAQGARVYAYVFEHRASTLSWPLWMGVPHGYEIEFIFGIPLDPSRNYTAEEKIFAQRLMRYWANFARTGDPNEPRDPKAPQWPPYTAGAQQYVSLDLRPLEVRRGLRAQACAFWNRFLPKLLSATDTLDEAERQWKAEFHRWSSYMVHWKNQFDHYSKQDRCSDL
Sequence of safety screen panel of human pharmacological targets (Homo sapiens, UniProt P06239) (P06239 whole entry): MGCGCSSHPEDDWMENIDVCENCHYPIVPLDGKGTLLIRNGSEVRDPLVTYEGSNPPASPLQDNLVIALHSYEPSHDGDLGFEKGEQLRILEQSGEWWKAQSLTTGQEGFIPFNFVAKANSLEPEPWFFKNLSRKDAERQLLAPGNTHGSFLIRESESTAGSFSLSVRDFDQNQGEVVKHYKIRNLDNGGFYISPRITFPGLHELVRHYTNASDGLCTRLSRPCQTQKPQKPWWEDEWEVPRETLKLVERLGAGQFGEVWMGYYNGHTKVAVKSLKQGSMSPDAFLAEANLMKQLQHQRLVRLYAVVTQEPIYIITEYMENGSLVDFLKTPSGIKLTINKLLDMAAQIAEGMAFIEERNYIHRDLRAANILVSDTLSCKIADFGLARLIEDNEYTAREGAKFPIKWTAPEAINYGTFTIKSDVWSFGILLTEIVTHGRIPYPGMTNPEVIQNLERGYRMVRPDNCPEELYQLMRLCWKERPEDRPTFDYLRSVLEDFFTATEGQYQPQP

Row | Structure (SMILES) | percent inhibition: Potassium Channel hERG (human)- [3H] Dofetilide ([1]; 10 micromolar test article) [%] | percent inhibition: alpha 1A(h) (antagonist radioligand) [2, 13] [%] | percent inhibition: alpha 2A (h) (antagonist radioligand) [2, 14] [%] | percent inhibition: BZD (central) (agonist radioligand) [2, 15] [%] | percent inhibition: Ca2+ channel (L. dihydropyridine site) (antagonist radioligand) [2, 16] [%] | percent inhibition: D2S (h) (agonist radioligand) [2, 17] [%] | percent inhibition: NMDA (antagonist radioligand) [2, 18] [%] | percent inhibition: PDE4D2 (h) [2, 19] [%] | percent inhibition: Na+ channel (site 2) (antagonist radioligand) [2, 20] [%] | change of share of total THC-glycosides in large intestine extracts versus small intestine extracts [3] | change of share of total THC-glycosides in small intestine extracts versus administered mixture [3] | inhibition at 10 µM [4] [%] | inhibition at 10 µM [5] [%] | inhibition at 10 µM [6] [%] | inhibition at 10 µM [7] [%] | inhibition at 10 µM [8] [%] | inhibition at 10 µM [9] [%] | inhibition at 10 µM [10] [%] | inhibition at 10 µM [11] [%] | inhibition at 10 µM [12] [%] | other results
1 | CCCCCc1cc(O[C@@H]2O[C@H](CO)[C@@H](O)[C@H](O)[C@H]2O)c2c(c1)OC(C)(C)[C@@H]1CCC(C)=C[C@@H]21 [VB302, Δ9THC-1-O-glucopyranoside] | -23 | -5 | 0 | -10 | 22 | 22 | 8 | -8 | 13 | further increases | increases | -8 | -10 | -3 | -1 | 16 | -20 | 10 | 5 | 20 | percent inhibition: KV channel (antagonist radioligand) [2, 21]: 1%; number of the 44 pharmacological targets whose binding is significantly inhibited or disrupted [2, 22]: did not significantly alter any of the targets
2 | CCCCCc1cc(O)c2c(c1)OC(C)(C)[C@@H]1CCC(C)=C[C@@H]21 [VB301, Δ9-Terahydrocannabinol, reference compound] | – | – | – | – | – | – | – | – | – | appreciable amounts | below the limit of detection | 20 | 15 | 20 | 30 | 90 | -6 | 8 | 43 | 92 | percent inhibition: Potassium Channel hERG (human)- [3H] Dofetilide ([1]; human): 67%; percent inhibition: BZD (central) (agonist radioligand) [2]: 2%; percent inhibition: Ca2+ channel (L. dihydropyridine site) (antagonist radioligand) [2]: 59%; percent inhibition: D2S (h) (agonist radioligand) [2]: 13%; percent inhibition: KV channel (antagonist radioligand) [2]: 5%; percent inhibition: NMDA (antagonist radioligand) [2]: 10%; percent inhibition: Na+ channel (site 2) (antagonist radioligand) [2]: 65%; percent inhibition: PDE4D2 (h) [2]: -11%; percent inhibition: alpha 1A(h) (antagonist radioligand) [2]: 6%; percent inhibition: alpha 2A (h) (antagonist radioligand) [2]: 94%; number of the 44 pharmacological targets whose binding is significantly inhibited or disrupted ([2]; human): 16
3 | CCCCCc1cc(O[C@@H]2O[C@H](CO[C@@H]3O[C@H](CO)[C@@H](O)[C@H](O)[C@H]3O)[C@@H](O[C@@H]3O[C@H](CO)[C@@H](O)[C@H](O)[C@H]3O)[C@H](O)[C@H]2O)c2c(c1)OC(C)(C)[C@@H]1CCC(C)=C[C@@H]21 [VB311] | -10 | -3 | 8 | 16 | -7 | -6 | 3 | -6 | 5 | further decreases | sharp decrease | 12 | 21 | -8 | 1 | 20 | 8 | -7 | 0 | 4 | percent inhibition: KV channel (antagonist radioligand) [2, 21]: -5%; number of the 44 pharmacological targets whose binding is significantly inhibited or disrupted [2, 22]: did not significantly alter any of the targets

— patent US20230346952A1, “CANNABINOID GLYCOSIDE PRODRUGS AND METHODS OF SYNTHESIS” (priority 2015, published 2023)
